The values that follow come from patent publication US8926603B2, “System and method for denaturing and fixing collagenous tissue” (Hansen Medical, Inc., priority 2004, dated 2015).

A short description of the assay: denaturation accompanied by genepin treatment, study at the University of Pennsylvania (FIG. 6). The following applies: versus denatured collagenous tissue without genepin treatment. From the text:
Referring to FIGS. 5A-C, a denatured collagenous tissue mass exposed to genepin (371) is depicted. […] The result is a partial recovery or recreation of the mechanical properties of collagenous tissue to the state that they were prior to denaturation. […] Referring to FIG. 6, this has been experimentally confirmed in a study at the University of Pennsylvania, as directed by the inventors of the subject invention.

On to `COC(=O)C1=CO[C@@H](O)[C@@H]2C(CO)=CC[C@H]12` [genepin], for which the “susceptibility to creep deformation of denatured collagenous tissue” value is given as “less susceptible to creep deformation”.
